Assay results: patent US20070238700A1, “N-PHENYL-1,1,1-TRIFLUOROMETHANESULFONAMIDE HYDRAZONE DERIVATIVE COMPOUNDS AND THEIR USAGE IN CONTROLLING PARASITES” (priority 2006, published 2007)
Where two headings read alike, the source gives them in different places.

System: Ctenocephalides felis
Method: b) Ctenocephalides felis Adulticide Assay: C. felis Single Dose Screen
Mortality of fleas was the primary endpoint in the assay. Fleas were considered dead if they didn't move or were on their sides and unable to walk or right themselves. […] The concentration chosen (1.26 μg/cm^2) was higher than that known to kill 90% of cat fleas (LC90) using the reference compound, permethrin.
The test species was the cat flea (Ctenocephalides felis). The strain used was obtained from external suppliers as pupae and held in the laboratory under testing conditions until the adults had emerged. Fifteen (15) fleas were used in a minimum of four replicates against a single concentration level (approximately 60 fleas). The insects were selected to be in the adult life stage, aged between 3 and 7 days post emergence.
The compounds to be tested were supplied as solids and were prepared in acetone as described below prior to testing. Samples were stored in a refrigerator (5±1° C.) unless otherwise specified.
During the mortality testing, the temperature was maintained at 25±1° C. Humidity was maintained at 75±5%. The base (area=159 mm^2) of a 100 mL glass Erlenmeyer (conical) flask provided the treatment surface. Flasks were pretreated with Coatasil™ glass treatment to maximise bio-availability of test compounds by preventing them from binding to glass the surface. The base of the 100 mL Erlenmeyer flask was treated with 0.5 mL of test sample in acetone and gently swirled. This volume was sufficient to cover the base of the flask. Flasks were left to dry for 24 hours before flea exposure.
Adult cat fleas were placed into a sorting chamber, which allowed fleas to jump into the Erlenmeyer flasks. Fifteen (15) adult cat fleas were collected in each flask. The top of the flasks were then covered in Parafilm™ and small holes were made to allow gas exchange. A 0.5 mL volume of acetone as a solvent control was applied to the base of an Erlenmeyer flask and the testing proceeded in the same manner described above. Cat fleas in the treatment containers were held under testing conditions for 8, 24 and/or 48 hours. Mortality was recorded at 8, 24, 8 and 24, or 24 and 48 hours Pooled 8, 24, 8 and 24, and 24 and 48 hour mortality data were converted to percentages and are summarized by Table 21, below.

Row | Structure (SMILES) | C. felis Mortality (%) 8 h (8 h, data from laboratory 1) | C. felis Mortality (%) 24 h (24 h, data from laboratory 1) | also measured
1 | Cn1nccc1-c1cc(Cl)ccc1NS(=O)(=O)C(F)(F)F (single isomer, unassigned) [Compound 93, N-[2-(1-methyl-1H-pyrazol-5-yl)-4-chlorophenyl]-trifluoromethanesulfonamide] | – | – | C. felis Mortality (%) 8 h (8 h): 5%; C. felis Mortality (%) 24 h (24 h): 9%
2 | CN(N=C(c1ccccc1)c1cc(Cl)ccc1NS(=O)(=O)C(F)(F)F)c1ccccc1 (single isomer, unassigned) [Compound 117] | 12% | 59% | –
3 | CN(N=C(c1ccccc1)c1cc(Cl)ccc1NS(=O)(=O)C(F)(F)F)c1ccccc1 (single isomer, unassigned) [Compound 118] | 6% | 27% | –
4 | CC(=NNc1ccccc1)c1cc(Cl)ccc1NS(=O)(=O)C(F)(F)F [Compound 12, N-[2-(1-phenylhydrazono)ethyl-4-chlorophenyl]-trifluoromethanesulfonamide] | – | – | C. felis Mortality (%) 8 h: 20^B %
5 | CC(=NN(C)c1ccc(Cl)cc1Cl)c1cc(Cl)ccc1N(C)S(=O)(=O)C(F)(F)F [Compound 29] | – | 0% | C. felis Mortality (%) 48 h (data from laboratory 1): 58%
6 | CCCN(N=C(C)c1cc(Cl)ccc1NS(=O)(=O)C(F)(F)F)c1ccc(Cl)cc1Cl [Compound 31] | – | 85% | C. felis Mortality (%) 48 h (data from laboratory 1): 100%
7 | CC(=NN(c1ccc(Cl)cc1Cl)C(C)C)c1cc(Cl)ccc1NS(=O)(=O)C(F)(F)F [Compound 32] | – | 41% | C. felis Mortality (%) 48 h (data from laboratory 1): 100%
8 | CC(=NN(C)c1ccccc1Cl)c1cc(Cl)ccc1N(C)S(=O)(=O)C(F)(F)F [Compound 40] | – | 0% | C. felis Mortality (%) 48 h (data from laboratory 1): 13%
9 | CCCN(N=C(C)c1cc(Cl)ccc1NS(=O)(=O)C(F)(F)F)c1ccccc1Cl [Compound 42] | – | 67% | C. felis Mortality (%) 48 h (data from laboratory 1): 100%
10 | CCCN(N=C(C)c1cc(Cl)ccc1NS(=O)(=O)C(F)(F)F)c1ccccc1F [Compound 45] | – | 27% | C. felis Mortality (%) 48 h (data from laboratory 1): 100%
11 | CC(=NN(c1ccccc1F)C(C)C)c1cc(Cl)ccc1NS(=O)(=O)C(F)(F)F [Compound 46] | 44% | 100% | –
12 | CC(=NN(c1ccc(Br)cc1)C(C)C)c1cc(Cl)ccc1NS(=O)(=O)C(F)(F)F [Compound 52] | 51% | 100% | –
13 | CC(=NNC(=O)c1ccc(Cl)cc1)c1cc(Cl)ccc1NS(=O)(=O)C(F)(F)F [Compound 57, N-[2-[1-(4-chlorobenzoyl)hydrazono]ethyl-4-chlorophenyl]-trifluoromethanesulfonamide] | – | – | C. felis Mortality (%) 8 h: 6%; C. felis Mortality (%) 24 h: 70%
14 | CC(=NNC(=O)c1ccccc1Cl)c1cc(Cl)ccc1NS(=O)(=O)C(F)(F)F [Compound 58] | 2% | 13% | –
15 | CC(=NNC(=O)c1ccc(Cl)cc1Cl)c1cc(Cl)ccc1NS(=O)(=O)C(F)(F)F [Compound 61] | 12% | 45% | –
16 | CC(=NN(C)c1ccc(F)cc1)c1cc(Cl)ccc1NS(=O)(=O)C(F)(F)F [Compound 64] | 1% | 50% | –
17 | CC(=NN(c1cc(Cl)cc(Cl)c1)C(C)C)c1cc(Cl)ccc1NS(=O)(=O)C(F)(F)F [Compound 67] | 20% | 85% | –
18 | CC(=NN(c1ccc(Cl)c(Cl)c1)C(C)C)c1cc(Cl)ccc1NS(=O)(=O)C(F)(F)F [Compound 68] | 18% | 73% | –
19 | CCN(N=C(C)c1cc(Cl)ccc1NS(=O)(=O)C(F)(F)F)c1cccc(Cl)c1Cl [Compound 69] | 39% | 92% | –
20 | COC(=O)NN=C(C)c1cc(Cl)ccc1NS(=O)(=O)C(F)(F)F [Compound 78, N-[2-[1-(methoxycarbonylhydrazono)ethyl]-4-chlorophenyl]-trifluoromethanesulfonamide] | – | – | C. felis Mortality (%) 8 h (8 h): 16%; C. felis Mortality (%) 24 h (24 h): 16%
21 | CCC(=NNC(=O)c1ccc(Cl)cc1Cl)c1cc(Cl)ccc1NS(=O)(=O)C(F)(F)F [Compound 79] | 14% | 92% | –
22 | CCC(=NNC(=O)c1ccccc1Cl)c1cc(Cl)ccc1NS(=O)(=O)C(F)(F)F [Compound 80] | 17% | 88% | –
23 | O=S(=O)(Nc1ccc(Cl)cc1C(=NN1CCCCC1)c1ccccc1)C(F)(F)F [Compound 83] | 15% | 17% | –

Row | Structure (SMILES) | C. felis Mortality (%) 8 h (8 h, data from laboratory 1) | C. felis Mortality (%) 24 h (24 h, data from laboratory 1) | also measured
24 | O=S(=O)(Nc1ccc(Cl)cc1C(=NN1CCOCC1)c1ccccc1)C(F)(F)F [Compound 84] | 9% | 76% | –
25 | CCOC(=O)NN=C(C)c1cc(Cl)ccc1NS(=O)(=O)C(F)(F)F [Compound 85] | 3% | 12% | –
26 | CC(=NNC(=O)OC(C)(C)C)c1cc(Cl)ccc1NS(=O)(=O)C(F)(F)F [Compound 86] | 4% | 26% | –
27 | CCC(=NNC(=O)OC)c1cc(Cl)ccc1NS(=O)(=O)C(F)(F)F [Compound 87] | 7% | 12% | –
28 | CCOC(=O)NN=C(CC)c1cc(Cl)ccc1NS(=O)(=O)C(F)(F)F [Compound 88] | 6% | 25% | –
29 | CCC(=NNC(=O)OC(C)(C)C)c1cc(Cl)ccc1NS(=O)(=O)C(F)(F)F [Compound 89] | 6% | 43% | –
30 | CC(=NNC(=O)Nc1ccccc1)c1cc(Cl)ccc1NS(=O)(=O)C(F)(F)F [Compound 90, N-[2-[1-(4-phenyl)semicarbazono]ethyl-4-chlorophenyl]-trifluoromethanesulfonamide] | – | – | C. felis Mortality (%) 8 h: 3%; C. felis Mortality (%) 24 h: 18%
31 | CC(=NNC(=O)Nc1ccccc1Cl)c1cc(Cl)ccc1NS(=O)(=O)C(F)(F)F [Compound 91] | 10% | 10% | –
32 | CC(=NNC(=O)Nc1ccc(Cl)cc1)c1cc(Cl)ccc1NS(=O)(=O)C(F)(F)F [Compound 92] | 8% | 8% | –
33 | O=S(=O)(Nc1ccc(Cl)cc1-c1ccn(-c2ccccc2)n1)C(F)(F)F [Compound 94] | 6% | 8% | –
34 | O=S(=O)(Nc1ccc(Cl)cc1-c1cc[nH]n1)C(F)(F)F [Compound 95] | 25% | 83% | –
35 | CCN(N=C(C)c1cc(Cl)ccc1NS(=O)(=O)C(F)(F)F)c1ccc(C)cc1 [Compound 101] | 11% | 90% | –
36 | CC(=NN(c1ccc(C)cc1)C(C)C)c1cc(Cl)ccc1NS(=O)(=O)C(F)(F)F [Compound 102] | 3% | 90% | –
37 | CCCN(N=C(C)c1cc(Cl)ccc1NS(=O)(=O)C(F)(F)F)c1cccc(Cl)c1 [Compound 106] | 0% | 25% | –
38 | CC(=NN1CCCCCC1)c1cc(Cl)ccc1NS(=O)(=O)C(F)(F)F [Compound 107] | 2% | 23% | –
39 | O=S(=O)(Nc1ccc(Cl)cc1-c1ccnn1-c1ccc(Cl)cc1)C(F)(F)F [Compound 108, N-[2-(1-4′-chlorophenyl-1H-pyrazol-5-yl)-4-chlorophenyl]-trifluoromethanesulfonamide] | – | – | C. felis Mortality (%) 8 h: 0%; C. felis Mortality (%) 24 h: 64%
40 | COCN(c1ccc(Cl)cc1C(C)=NN(C)c1ccccc1)S(=O)(=O)C(F)(F)F [Compound 110] | 6% | 52% | –
41 | CC(=NN(C)c1ccccc1)c1cc(Cl)ccc1N(COC(=O)C(C)(C)C)S(=O)(=O)C(F)(F)F [Compound 111] | 14% | 32% | –
42 | CC(=NN(C)C)c1cc(Cl)ccc1NS(=O)(=O)C(F)(F)F [Compound 113] | 3% | 66% | –
43 | CC(=NN(C)c1ccccc1)c1ccccc1NS(=O)(=O)C(F)(F)F [Compound 114, N-[2-[1-(N′-methyl-N′-phenyl)hydrazono]ethyl-phenyl]-trifluoromethanesulfonamide] | – | – | C. felis Mortality (%) 8 h: 56%; C. felis Mortality (%) 24 h: 86%
44 | CC(=NN(C)c1ccccc1)c1cccc(Cl)c1NS(=O)(=O)C(F)(F)F [Compound 115] | 10% | 63% | –
45 | CN(N=C(c1cc(Cl)ccc1NS(=O)(=O)C(F)(F)F)C1CCCCC1)c1ccccc1 [Compound 119] | 7% | 14% | –
46 | O=S(=O)(Nc1ccc(Cl)cc1C(=NNc1ccc(Cl)cc1)c1ccccc1)C(F)(F)F [Compound 121] | 12% | 41% | –
